Test system: T-47D spheroids with HUVEC/MSC, viability
Assay: Anticancer human tumor T-47D cell line growth inhibition [PI3K];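 also: spheroids exposed to agents for seven days before reading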;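 as to viability, T/C: percent of DMSO vehicle control luminescence so 100% = untreated growth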
Conditions: for IC50: curve of first compound; for viability, T/C: stronger effect = lower value; active = viability on the fitted dose curve at most 10% of control; inactive = the rest
Summary of the method: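 Multi-cell spheroids combine tumor cells with HUVEC and human MSCs, treated with targeted agents alone or with inavolisib, alpelisib, duvelisib or copanlisib. Concentrations fall in half-log steps from at or near clinical Cmax, or from 10 microM where Cmax is unknown; viability read-out.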

[1] = second compound 0.0316 µM, first compound 0.0316 µM
[2] = second compound 0.0316 µM, first compound 0.1 µM
[3] = second compound 0.0316 µM, first compound 0.316 µM
[4] = second compound 0.0316 µM, first compound 1 µM
[5] = second compound 0.0316 µM, first compound 3.16 µM
[6] = second compound 0.0316 µM, first compound 10 µM
[7] = second compound 0.1 µM, first compound 0.0316 µM
[8] = second compound 0.1 µM, first compound 0.1 µM
[9] = second compound 0.1 µM, first compound 0.316 µM
[10] = second compound 0.1 µM, first compound 1 µM
[11] = second compound 0.1 µM, first compound 3.16 µM
[12] = second compound 0.1 µM, first compound 10 µM
[13] = second compound 0.316 µM, first compound 0.0316 µM
[14] = second compound 0.316 µM, first compound 0.1 µM
[15] = second compound 0.316 µM, first compound 0.316 µM
[16] = second compound 0.316 µM, first compound 1 µM
[17] = second compound 0.316 µM, first compound 3.16 µM
[18] = second compound 0.316 µM, first compound 10 µM
[19] = second compound 1 µM, first compound 0.0316 µM
[20] = second compound 1 µM, first compound 0.1 µM
[21] = second compound 1 µM, first compound 0.316 µM
[22] = second compound 1 µM, first compound 1 µM
[23] = second compound 1 µM, first compound 3.16 µM
[24] = second compound 1 µM, first compound 10 µM
[25] = second compound 0.00316 µM, first compound 0.0316 µM
[26] = second compound 0.00316 µM, first compound 0.1 µM
[27] = second compound 0.00316 µM, first compound 0.316 µM
[28] = second compound 0.00316 µM, first compound 1 µM
[29] = second compound 0.00316 µM, first compound 3.16 µM
[30] = second compound 0.00316 µM, first compound 10 µM
[31] = second compound 0.01 µM, first compound 0.0316 µM
[32] = second compound 0.01 µM, first compound 0.1 µM
[33] = second compound 0.01 µM, first compound 0.316 µM
[34] = second compound 0.01 µM, first compound 1 µM
[35] = second compound 0.01 µM, first compound 3.16 µM
[36] = second compound 0.01 µM, first compound 10 µM

Cn1nccc1Nc1nccc(-c2ccn(C(CO)c3ccc(Cl)c(F)c3)c(=O)c2)n1 (stereo not drawn) + CC(Nc1ncnc2nc[nH]c12)c1cc2cccc(Cl)c2c(=O)n1-c1ccccc1
> 10 µM: IC50 (second compound 0.0316 µM) | IC50 (second compound 0.1 µM) | IC50 (second compound 0.316 µM) | IC50 (second compound 1 µM) | IC50 (second compound 3.16 µM) | IC50 (second compound 10 µM)
inactive: viability, T/C [1] 114% | viability, T/C [2] 91.8% | viability, T/C [3] 116% | viability, T/C [4] 103% | viability, T/C [5] 115% | viability, T/C [6] 90.4% | viability, T/C [7] 109% | viability, T/C [8] 99.9% | viability, T/C [9] 99.2% | viability, T/C [10] 85.5% | viability, T/C [11] 104% | viability, T/C [12] 81% | viability, T/C [13] 80.2% | viability, T/C [14] 96.7% | viability, T/C [15] 87.5% | viability, T/C [16] 88.8% | viability, T/C [17] 118% | viability, T/C [18] 83.5% | viability, T/C [19] 88.4% | viability, T/C [20] 108% | viability, T/C [21] 98.4% | viability, T/C [22] 113% | viability, T/C [23] 111% | viability, T/C [24] 84.2% | viability, T/C (second compound 3.16 µM, first compound 0.0316 µM) 101% | viability, T/C (second compound 3.16 µM, first compound 0.1 µM) 97.6% | viability, T/C (second compound 3.16 µM, first compound 0.316 µM) 97.6% | viability, T/C (second compound 3.16 µM, first compound 1 µM) 85.5% | viability, T/C (second compound 3.16 µM, first compound 3.16 µM) 108% | viability, T/C (second compound 3.16 µM, first compound 10 µM) 96.3% | viability, T/C (second compound 10 µM, first compound 0.0316 µM) 97.1% | viability, T/C (second compound 10 µM, first compound 0.1 µM) 84.1% | viability, T/C (second compound 10 µM, first compound 0.316 µM) 95.8% | viability, T/C (second compound 10 µM, first compound 1 µM) 94% | viability, T/C (second compound 10 µM, first compound 3.16 µM) 125% | viability, T/C (second compound 10 µM, first compound 10 µM) 73.9%

CC1(C)CCC(CN2CCN(c3ccc(C(=O)NS(=O)(=O)c4ccc(NCC5CCOCC5)c([N+](=O)[O-])c4)c(Oc4cnc5[nH]ccc5c4)c3)CC2)=C(c2ccc(Cl)cc2)C1 + CC(Nc1ccc2c(c1)OCCn1cc(N3C(=O)OCC3C(F)F)nc1-2)C(N)=O
> 10 µM: IC50 (second compound 0.00316 µM) | IC50 (second compound 0.01 µM) | IC50 (second compound 0.0316 µM) | IC50 (second compound 0.1 µM) | IC50 (second compound 0.316 µM)
4.16 µM: IC50 (second compound 1 µM)
inactive: viability, T/C [25] 101% | viability, T/C [26] 97.2% | viability, T/C [27] 98.9% | viability, T/C [28] 89.8% | viability, T/C [29] 76.3% | viability, T/C [30] 78.9% | viability, T/C [31] 90.1% | viability, T/C [32] 81.5% | viability, T/C [33] 93.7% | viability, T/C [34] 91.6% | viability, T/C [35] 79.5% | viability, T/C [36] 69.7% | viability, T/C [1] 87.3% | viability, T/C [2] 94% | viability, T/C [3] 103% | viability, T/C [4] 75.5% | viability, T/C [5] 87% | viability, T/C [6] 65.5% | viability, T/C [7] 77.6% | viability, T/C [8] 76.3% | viability, T/C [9] 89.6% | viability, T/C [10] 87.5% | viability, T/C [11] 89.5% | viability, T/C [12] 53.4% | viability, T/C [13] 65.5% | viability, T/C [14] 79.2% | viability, T/C [15] 69.7% | viability, T/C [16] 61.4% | viability, T/C [17] 72.9% | viability, T/C [18] 52.1% | viability, T/C [19] 52.9% | viability, T/C [20] 54.5% | viability, T/C [21] 61% | viability, T/C [22] 57.2% | viability, T/C [23] 53% | viability, T/C [24] 38.3%

CC(C)NCC(C(=O)N1CCN(c2ncnc3c2C(C)CC3O)CC1)c1ccc(Cl)cc1 (stereo not drawn) + COc1c(OCCCN2CCOCC2)ccc2c3n(c(=NC(=O)c4cnc(N)nc4)nc12)CCN3
inactive: viability, T/C [25] 92.8% | viability, T/C [26] 71% | viability, T/C [27] 74.3% | viability, T/C [28] 64.8% | viability, T/C [29] 50.7% | viability, T/C [30] 45.9% | viability, T/C [31] 90.7% | viability, T/C [32] 74.2% | viability, T/C [33] 64% | viability, T/C [34] 53.6% | viability, T/C [35] 45.3% | viability, T/C [36] 38.8% | viability, T/C [1] 69.8% | viability, T/C [2] 70.9% | viability, T/C [3] 50.1% | viability, T/C [4] 45.2% | viability, T/C [5] 40.6% | viability, T/C [6] 38.3% | viability, T/C [7] 46.5% | viability, T/C [8] 40.7% | viability, T/C [9] 34.3% | viability, T/C [10] 30.4% | viability, T/C [11] 30.2% | viability, T/C [12] 26.1% | viability, T/C [13] 17.6% | viability, T/C [14] 18.4% | viability, T/C [15] 16% | viability, T/C [16] 17.4% | viability, T/C [17] 15.1% | viability, T/C [18] 15.6%
5.28 µM: IC50 (second compound 0.00316 µM)
0.324 µM: IC50 (second compound 0.0316 µM)
< 0.0316 µM: IC50 (second compound 0.1 µM) | IC50 (second compound 0.316 µM) | IC50 (second compound 1 µM)
1.6 µM: IC50 (second compound 0.01 µM)
active: viability, T/C [19] 5.88% | viability, T/C [20] 5.08% | viability, T/C [21] 4.99% | viability, T/C [22] 5.31% | viability, T/C [23] 4.66% | viability, T/C [24] 6.36%

Cn1cnc2c(F)c(Nc3ccc(Br)cc3Cl)c(C(=O)NOCCO)cc21 + COc1c(OCCCN2CCOCC2)ccc2c3n(c(=NC(=O)c4cnc(N)nc4)nc12)CCN3
active: viability, T/C (second compound 1 µM, first compound 0.00949 µM) 6.16% | viability, T/C (second compound 1 µM, first compound 0.03 µM) 4.64% | viability, T/C (second compound 1 µM, first compound 0.0949 µM) 7.54% | viability, T/C (second compound 1 µM, first compound 0.3 µM) 7.14% | viability, T/C (second compound 1 µM, first compound 0.949 µM) 7.29% | viability, T/C (second compound 1 µM, first compound 3 µM) 6.05%
> 3 µM: IC50 (second compound 0.00316 µM) | IC50 (second compound 0.01 µM) | IC50 (second compound 0.0316 µM)
inactive: viability, T/C (second compound 0.00316 µM, first compound 0.00949 µM) 97.1% | viability, T/C (second compound 0.00316 µM, first compound 0.03 µM) 88.8% | viability, T/C (second compound 0.00316 µM, first compound 0.0949 µM) 88.3% | viability, T/C (second compound 0.00316 µM, first compound 0.3 µM) 94.8% | viability, T/C (second compound 0.00316 µM, first compound 0.949 µM) 92.5% | viability, T/C (second compound 0.00316 µM, first compound 3 µM) 76.6% | viability, T/C (second compound 0.01 µM, first compound 0.00949 µM) 89.5% | viability, T/C (second compound 0.01 µM, first compound 0.03 µM) 77.5% | viability, T/C (second compound 0.01 µM, first compound 0.0949 µM) 102% | viability, T/C (second compound 0.01 µM, first compound 0.3 µM) 66% | viability, T/C (second compound 0.01 µM, first compound 0.949 µM) 85.6% | viability, T/C (second compound 0.01 µM, first compound 3 µM) 92.9% | viability, T/C (second compound 0.0316 µM, first compound 0.00949 µM) 64% | viability, T/C (second compound 0.0316 µM, first compound 0.03 µM) 51.7% | viability, T/C (second compound 0.0316 µM, first compound 0.0949 µM) 64.6% | viability, T/C (second compound 0.0316 µM, first compound 0.3 µM) 57.8% | viability, T/C (second compound 0.0316 µM, first compound 0.949 µM) 71.9% | viability, T/C (second compound 0.0316 µM, first compound 3 µM) 67.7% | viability, T/C (second compound 0.1 µM, first compound 0.00949 µM) 41.4% | viability, T/C (second compound 0.1 µM, first compound 0.03 µM) 34.3% | viability, T/C (second compound 0.1 µM, first compound 0.0949 µM) 32.9% | viability, T/C (second compound 0.1 µM, first compound 0.3 µM) 38.7% | viability, T/C (second compound 0.1 µM, first compound 0.949 µM) 41.5% | viability, T/C (second compound 0.1 µM, first compound 3 µM) 35.4% | viability, T/C (second compound 0.316 µM, first compound 0.00949 µM) 12.8% | viability, T/C (second compound 0.316 µM, first compound 0.03 µM) 16.8% | viability, T/C (second compound 0.316 µM, first compound 0.0949 µM) 16.7% | viability, T/C (second compound 0.316 µM, first compound 0.3 µM) 13.7% | viability, T/C (second compound 0.316 µM, first compound 0.949 µM) 20.4% | viability, T/C (second compound 0.316 µM, first compound 3 µM) 14.4%
< 0.00949 µM: IC50 (second compound 0.1 µM) | IC50 (second compound 0.316 µM) | IC50 (second compound 1 µM)

— PubChem BioAssay AID1963959 (Molecular Pharmacology Branch, DTP, NCI, 2024)
